As usually defined, the IC50 is the concentration that inhibits the measured activity by half.

Molecules are shown by their SMILES.

Full-length inactive AKT1, sequence (P31749 whole entry): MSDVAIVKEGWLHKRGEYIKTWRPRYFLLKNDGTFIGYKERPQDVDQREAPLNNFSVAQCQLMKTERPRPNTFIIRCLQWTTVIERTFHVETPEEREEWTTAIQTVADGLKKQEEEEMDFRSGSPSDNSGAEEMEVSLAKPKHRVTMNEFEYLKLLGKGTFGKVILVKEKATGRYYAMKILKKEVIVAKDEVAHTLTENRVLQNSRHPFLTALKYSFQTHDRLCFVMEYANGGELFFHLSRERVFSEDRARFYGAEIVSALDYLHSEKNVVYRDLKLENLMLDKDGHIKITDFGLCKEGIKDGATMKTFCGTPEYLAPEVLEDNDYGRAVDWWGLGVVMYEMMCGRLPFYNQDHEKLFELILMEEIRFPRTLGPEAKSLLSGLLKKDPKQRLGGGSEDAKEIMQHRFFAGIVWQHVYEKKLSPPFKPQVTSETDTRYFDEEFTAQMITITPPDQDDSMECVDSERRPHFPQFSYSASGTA

In the assay the target is Full-length inactive AKT1 (Homo sapiens, UniProt P31749). In words: Inactive Akt Alpha Screen Assay. The format is biochemical. As to conditions: values not marked with "*"; read-out: Akt1 IC50, (AlphaScreen). The gist of the method:
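AlphaScreen read-out (excitation 640 nm, emission 570 nm) after 90 min incubation at room temperature in the dark. Signal comes from crosstide phosphorylation by AKT1, which was activated by added PDK1, MAPKAPK2, ATP and lipid vesicles, captured via phospho-AKT substrate antibody and streptavidin beads.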
On to `Cc1ccc2cc(NC(=O)Cc3ccc(-n4c(-c5cccnc5N)nc5cc(-c6cccnc6)cnc54)cc3)ccc2n1` [Example 318, 2-(4-(2-(2-aminopyridin-3-yl)-6-(pyridin-3-yl)-3H-imidazo[4,5-b]pyridin-3-yl)phenyl)-N-(2-methylquinolin-6-yl)acetamide], for which the IC50 worked out at 19 nM.

As to `CC(=O)Nc1ccc(NC(=O)Cc2ccc(-n3c(-c4cccnc4N)nc4cc(-c5cccnc5)cnc43)cc2)cc1` [Example 319, N-(4-acetamidophenyl)-2-(4-(2-(2-aminopyridin-3-yl)-6-(pyridin-3-yl)-3H-imidazo[4,5-b]pyridin-3-yl)phenyl)acetamide], the IC50 is 22 nM.

For the compound `Nc1ncccc1-c1nc2cc(-c3cccnc3)cnc2n1-c1ccc(CC(=O)Nc2cccc(F)c2)cc1` [Example 320, 2-(4-(2-(2-aminopyridin-3-yl)-6-(pyridin-3-yl)-3H-imidazo[4,5-b]pyridin-3-yl)phenyl)-N-(3-fluorophenyl)acetamide], the IC50 is 57 nM.

For `Cc1cc2nc(-c3cccnc3N)n(-c3ccc(CNC(=O)c4cccc(F)c4)cc3)c2nc1C` [Example 321, N-(4-(2-(2-aminopyridin-3-yl)-5,6-dimethyl-3H-imidazo[4,5-b]pyridin-3-yl)benzyl)-3-fluorobenzamide], the concentration for half-maximal inhibition (IC50) is 76 nM.

As for `Cc1cc2nc(-c3cccnc3N)n(-c3ccc(CNC(=O)c4ccccc4)cc3)c2nc1C` [Example 322, N-(4-(2-(2-aminopyridin-3-yl)-5,6-dimethyl-3H-imidazo[4,5-b]pyridin-3-yl)benzyl)benzamide], the IC50 was found to be 77 nM.

In the case of `CC(=O)Nc1cccc(NC(=O)Cc2ccc(-n3c(-c4cccnc4N)nc4ccc(C)nc43)cc2)c1` [Example 323, N-(3-acetamidophenyl)-2-(4-(2-(2-aminopyridin-3-yl)-5-methyl-3H-imidazo[4,5-b]pyridin-3-yl)phenyl)acetamide], the IC50 turned out to be 150 nM.

For the compound `CC(=O)Nc1cccc(-c2ccc3nc(-c4cccnc4N)n(-c4ccc(CNS(=O)(=O)c5cn(C)cn5)cc4)c3n2)c1` [Example 325, N-(3-(2-(2-aminopyridin-3-yl)-3-(4-((1-methyl-1H-imidazole-4-sulfonamido)methyl)phenyl)-3H-imidazo[4,5-b]pyridin-5-yl)phenyl)acetamide], the 50% inhibitory concentration (IC50) came to 33 nM.

As to `N#Cc1ccc(-c2ccc3nc(-c4cccnc4N)n(-c4ccc(CNC(=O)c5cccc(F)c5)cc4)c3n2)cc1` [Example 326, N-(4-(2-(2-aminopyridin-3-yl)-5-(4-cyanophenyl)-3H-imidazo[4,5-b]pyridin-3-yl)benzyl)-3-fluorobenzamide], the IC50 was 650 nM.

Regarding `Nc1ccccc1-c1ccc2nc(-c3cccnc3N)n(-c3ccc(CNC(=O)c4cccc(F)c4)cc3)c2n1` [Example 327, N-(4-(5-(2-aminophenyl)-2-(2-aminopyridin-3-yl)-3H-imidazo[4,5-b]pyridin-3-yl)benzyl)-3-fluorobenzamide], the IC50 was 91 nM.

Turning to `Nc1ncccc1-c1nc2ccc(-c3ccccc3O)nc2n1-c1ccc(CNC(=O)c2cccc(F)c2)cc1` [Example 328, N-(4-(2-(2-aminopyridin-3-yl)-5-(2-hydroxyphenyl)-3H-imidazo[4,5-b]pyridin-3-yl)benzyl)-3-fluorobenzamide], the half-maximal inhibitory concentration (IC50) came out at 47 nM.

Take `Nc1ncccc1-c1nc2ccc(-c3ccc(F)cc3)nc2n1-c1ccc(CNC(=O)c2cccc(F)c2)cc1` [Example 329, N-(4-(2-(2-aminopyridin-3-yl)-5-(4-fluorophenyl)-3H-imidazo[4,5-b]pyridin-3-yl)benzyl)-3-fluorobenzamide]: the half-inhibitory concentration (IC50) was determined as 360 nM.

As to `Nc1ncccc1-c1nc2ccc(-c3ccc(O)cc3)nc2n1-c1ccc(CNC(=O)c2cccc(F)c2)cc1` [Example 330, N-(4-(2-(2-aminopyridin-3-yl)-5-(4-hydroxyphenyl)-3H-imidazo[4,5-b]pyridin-3-yl)benzyl)-3-fluorobenzamide], the concentration for half-maximal inhibition (IC50) worked out at 120 nM.

In the case of `Nc1ncccc1-c1nc2ccc(-c3ccc4cc[nH]c4c3)nc2n1-c1ccc(CNC(=O)c2cccc(F)c2)cc1` [Example 331, N-(4-(2-(2-aminopyridin-3-yl)-5-(1H-indol-6-yl)-3H-imidazo[4,5-b]pyridin-3-yl)benzyl)-3-fluorobenzamide], the IC50 worked out at 420 nM.

`Nc1ncccc1-c1nc2ccc(-c3ccc4c(c3)OCCO4)nc2n1-c1ccc(CNC(=O)c2cccc(F)c2)cc1` [Example 332, N-(4-(2-(2-aminopyridin-3-yl)-5-(2,3-dihydro-benzo[b][1,4]dioxin-6-yl)-3H-imidazo[4,5-b]pyridin-3-yl)benzyl)-3-fluorobenzamide]: the 50% inhibitory concentration (IC50) stood at 160 nM.

As to `Nc1ncccc1-c1nc2ccc(-c3ccncc3)nc2n1-c1ccc(CNC(=O)c2cccc(F)c2)cc1` [Example 334, N-(4-(2-(2-aminopyridin-3-yl)-5-(pyridin-4-yl)-3H-imidazo[4,5-b]pyridin-3-yl)benzyl)-3-fluorobenzamide], the IC50 stood at 36 nM.

As to `N#Cc1cccc(-c2ccc3nc(-c4cccnc4N)n(-c4ccc(CNC(=O)c5cccc(F)c5)cc4)c3n2)c1` [Example 335, N-(4-(2-(2-aminopyridin-3-yl)-5-(3-cyanophenyl)-3H-imidazo[4,5-b]pyridin-3-yl)benzyl)-3-fluorobenzamide], the IC50 was found to be 182 nM.

For `COC(=O)c1ccc(-c2ccc3nc(-c4cccnc4N)n(-c4ccc(CNC(=O)c5cccc(F)c5)cc4)c3n2)cc1` [Example 336, methyl 4-(2-(2-aminopyridin-3-yl)-3-(4-((3-fluorobenzamido)methyl)phenyl)-3H-imidazo[4,5-b]pyridin-5-yl)benzoate], the IC50 was determined as 320 nM.

As for `Nc1ncccc1-c1nc2ccc(-c3cncnc3)nc2n1-c1ccc(CNC(=O)c2cccc(F)c2)cc1` [Example 337, N-(4-(2-(2-aminopyridin-3-yl)-5-(pyrimidin-5-yl)-3H-imidazo[4,5-b]pyridin-3-yl)benzyl)-3-fluorobenzamide], the IC50 came out at 82 nM.

For `CC(=O)Nc1cccc(-c2ccc3nc(-c4cccnc4N)n(-c4ccc(C5(NC(=O)OC(C)(C)C)CCC5)cc4)c3n2)c1` [Example 340, tert-butyl (1-(4-(5-(3-acetamidophenyl)-2-(2-aminopyridin-3-yl)-3H-imidazo[4,5-b]pyridin-3-yl)phenyl)cyclobutyl)carbamate], the IC50 is 350 nM.

Consider `CNC(=O)Cc1ccc(-n2c(-c3cccnc3N)nc3ccc(-c4cccc(NC(C)=O)c4)nc32)cc1` [Example 341, 2-(4-(5-(3-acetamidophenyl)-2-(2-aminopyridin-3-yl)-3H-imidazo[4,5-b]pyridin-3-yl)phenyl)-N-methylacetamide], for which the IC50 was found to be 32 nM.

Take `CC(=O)Nc1ccc(NC(=O)Cc2ccc(-n3c(-c4cccnc4N)nc4cc(F)cnc43)cc2)cc1` [Example 342, N-(4-acetamidophenyl)-2-(4-(2-(2-aminopyridin-3-yl)-6-fluoro-3H-imidazo[4,5-b]pyridin-3-yl)phenyl)acetamide]: the 50% inhibitory concentration (IC50) was determined as 61 nM.

`CC(=O)Nc1cccc(NC(=O)Cc2ccc(-n3c(-c4cccnc4N)nc4cc(C)cnc43)cc2)c1` [Example 343, N-(3-acetamidophenyl)-2-(4-(2-(2-aminopyridin-3-yl)-6-methyl-3H-imidazo[4,5-b]pyridin-3-yl)phenyl)acetamide]: the IC50 is 110 nM.

As for `CC(=O)Nc1cccc(-c2nc3c(cc2C)nc(-c2cccnc2N)n3-c2ccc(CNC(=O)c3ccccc3)cc2)c1` [Example 344, N-(4-(5-(3-acetamidophenyl)-2-(2-aminopyridin-3-yl)-6-methyl-3H-imidazo[4,5-b]pyridin-3-yl)benzyl)benzamide], the IC50 stood at 23 nM.

On to `Cc1cc2nc(-c3cccnc3N)n(-c3ccc(CNC(=O)c4ccccc4)cc3)c2nc1-c1ccccc1` [Example 345, N-(4-(2-(2-aminopyridin-3-yl)-6-methyl-5-phenyl-3H-imidazo[4,5-b]pyridin-3-yl)benzyl)benzamide], for which the concentration for half-maximal inhibition (IC50) was 44 nM.

As to `Cc1cc2nc(-c3cccnc3N)n(-c3ccc(CNC(=O)c4ccccc4)cc3)c2nc1Cl` [Example 346, N-(4-(2-(2-aminopyridin-3-yl)-5-chloro-6-methyl-3H-imidazo[4,5-b]pyridin-3-yl)benzyl)benzamide], the IC50 worked out at 86 nM.

For `CC(=O)Nc1cccc(C(=O)NCc2ccc(-n3c(-c4cccnc4N)nc4cc(C)c(C)nc43)cc2)c1` [Example 347, 3-acetamido-N-(4-(2-(2-aminopyridin-3-yl)-5,6-dimethyl-3H-imidazo[4,5-b]pyridin-3-yl)benzyl)benzamide], the IC50 was 54 nM.

Consider `Cc1ccc2nc(-c3cccnc3N)n(-c3ccc(CC(=O)c4ccccc4)cc3)c2n1` [Example 349, 2-(4-(2-(2-aminopyridin-3-yl)-5-methyl-3H-imidazo[4,5-b]pyridin-3-yl)phenyl)-1-phenylethanone], for which the IC50 turned out to be 180 nM.

In the case of `CC(C)(C)OC(=O)NC1(c2ccc(-n3c(-c4cccnc4N)nc4ccc(-c5ccccc5)nc43)cc2)CCC1` [Example 350, tert-butyl (1-(4-(2-(2-aminopyridin-3-yl)-5-phenyl-3H-imidazo[4,5-b]pyridin-3-yl)phenyl)cyclobutyl)carbamate], the IC50 worked out at 1400 nM.

As to `CC(C)(C)OC(=O)NCc1ccc(-n2c(-c3cccnc3N)nc3ccc(-c4cn[nH]c4)nc32)cc1` [Example 354, tert-butyl 4-(2-(2-aminopyridin-3-yl)-5-(1H-pyrazol-4-yl)-3H-imidazo[4,5-b]pyridin-3-yl)benzylcarbamate], the half-maximal inhibitory concentration (IC50) stood at 150 nM.

For the compound `CC(C)(C)OC(=O)NCc1ccc(-n2c(-c3cccnc3N)nc3ccc(-c4ccccc4)nc32)cc1` [Example 355, tert-butyl 4-(2-(2-aminopyridin-3-yl)-5-phenyl-3H-imidazo[4,5-b]pyridin-3-yl)benzylcarbamate], the IC50 worked out at 270 nM.

As for `NCc1ccc(-n2c(-c3cccnc3N)nc3ccc(-c4cccc(C(=O)O)c4)nc32)cc1` [Example 357, 3-(3-(4-(aminomethyl)phenyl)-2-(2-aminopyridin-3-yl)-3H-imidazo[4,5-b]pyridin-5-yl)benzoic acid], the IC50 was 27 nM.

Source of the values: US8501770B2 (ArQule, Inc., priority 2009, dated 2013).
